Laboratory results: patent US8415342B2, “Besifloxacin ophthalmic composition for the treatment or control of infection” (Bausch & Lomb Incorporated, priority 2008, dated 2013)
≈ marks a conversion by molar mass, not a printed value. Like-named read-outs stand apart in the source and are kept apart here.

Columns and labels:
Type in all cases: cell-based
[1] = system: Citrobacter koseri; test: MIC, CLSI broth microdilution, clinical isolates; details: Citrobacter koseri (N = 100)
[2] = system: Klebsiella oxytoca; test: MIC, CLSI broth microdilution, clinical isolates; details: Klebsiella oxytoca (N = 50)
[3] = system: Morganella morganii; test: MIC, CLSI broth microdilution, clinical isolates; details: Morganella morganii (N = 51)
[4] = system: Anaerobic Bacteria; test: MIC against anaerobic bacteria (Table 7); details: for % S (percent of susceptible isolates): CLSI breakpoints
[5] = system: Staphylococcus aureus; test: MIC, CLSI broth microdilution, clinical isolates; details: for MIC50 / MIC90: Staphylococcus aureus
[6] = system: Staphylococcus epidermidis; test: MIC, CLSI broth microdilution, clinical isolates; details: for MIC50: Staphylococcus epidermidis
[7] = system: Staphylococcus lugdunensis; test: MIC, CLSI broth microdilution, clinical isolates; details: Staphylococcus lugdunensis (N = 15)
[8] = system: Staphylococcus saprophyticus; test: MIC, CLSI broth microdilution, clinical isolates; details: Staphylococcus saprophyticus (N = 101)
[9] = system: Staphylococcus haemolyticus; test: MIC, CLSI broth microdilution, clinical isolates; details: Staphylococcus haemolyticus (N = 101)
[10] = system: Staphylococcus warneri; test: MIC, CLSI broth microdilution, clinical isolates; details: Staphylococcus warneri (N = 50)
[11] = system: Staphylococcus hominis; test: MIC, CLSI broth microdilution, clinical isolates; details: Staphylococcus hominis (N = 50)
[12] = system: Moraxella catarrhalis; test: MIC, CLSI broth microdilution, clinical isolates; details: Moraxella catarrhalis (N = 101)
[13] = system: Streptococcus agalactiae; test: MIC, CLSI broth microdilution, clinical isolates; details: Streptococcus agalactiae (N = 100)
[14] = system: Streptococcus pneumoniae; test: MIC, CLSI broth microdilution, clinical isolates
[15] = system: Streptococcus pyogenes; test: MIC, CLSI broth microdilution, clinical isolates; details: Streptococcus pyogenes (N = 101)
[16] = system: Lancefield group C, F, G streptococci; test: MIC, CLSI broth microdilution, clinical isolates; details: G streptococci (N = 50)
[17] = system: Viridans streptococci; test: MIC, CLSI broth microdilution, clinical isolates; details: Viridans streptococci (N = 156)
[18] = Bacteroides fragilis, Bacteroides fragilis (N = 20), read-out: MIC50
[19] = Bacteroides fragilis, Bacteroides fragilis (N = 20), read-out: MIC90
[20] = Clostridium perfringens (N = 21)
[21] = Clostridium perfringens, Clostridium perfringens (N = 21)
[22] = Fusobacterium spp. (N = 21), read-out: MIC50
[23] = Fusobacterium spp. (N = 21), read-out: MIC90
[24] = Propionibacterium acnes (N = 21)
[25] = Staphylococcus aureus (CNS, N = 16)
[26] = Staphylococcus aureus (CS, N = 14)
[27] = Staphylococcus aureus (MSSA, N = 19)
[28] = Staphylococcus aureus (all phenotypes, N = 30)
[29] = MRSA, Staphylococcus aureus (MRSA, N = 11)
[30] = MSSA, Staphylococcus aureus (MSSA, N = 19)
[31] = Staphylococcus epidermidis (CNS, N = 6)
[32] = Staphylococcus epidermidis (CS, N = 9)
[33] = Staphylococcus epidermidis (MRSE, N = 9)
[34] = Staphylococcus epidermidis (MSSE, N = 6)
[35] = Staphylococcus epidermidis (all phenotypes, N = 15)
[36] = Streptococcus pneumoniae (PISP, N = 2)
[37] = Streptococcus pneumoniae (PSSP, N = 31)
[38] = Streptococcus pneumoniae (all phenotypes, N = 35)

CC(C)(O/N=C(\C(=O)N[C@@H]1C(=O)N2C(C(=O)[O-])=C(C[n+]3ccccc3)CS[C@H]12)c1csc(N)n1)C(=O)O [Ceftazidime]
% S [1]: 100.0%
MIC50 [1]: 0.12 µg/mL (≈ 0.22 µM)
MIC90 [1]: 0.5 µg/mL (≈ 0.915 µM)
MIC Range [1]: 0.06 to 4 µg/mL
% S [2]: 100.0%
MIC50 [2]: 0.12 µg/mL (≈ 0.22 µM)
MIC90 [2]: 0.5 µg/mL (≈ 0.915 µM)
MIC Range [2]: 0.03 to 1 µg/mL
% S [3]: 82.4%
MIC50 [3]: 0.12 µg/mL (≈ 0.22 µM)
MIC90 [3]: 16 µg/mL (≈ 29.3 µM)

CCC[C@@H]1C[C@@H](C(=O)N[C@@H]([C@H]2O[C@H](SC)[C@H](O)[C@@H](O)[C@H]2O)[C@H](C)Cl)N(C)C1 [Clindamycin]
MIC50 [4]: ≤ 0.03 µg/mL
MIC90 [4]: > 8 µg/mL
% S (percent of susceptible isolates) ([4]; Bacteroides fragilis (N = 20)): 65.0%
MIC50 [4, 18]: 2 µg/mL (≈ 4.71 µM)
MIC90 [4, 19]: > 8 µg/mL
MIC Range [4, 20]: 0.06 to 4 µg/mL
% S (percent of susceptible isolates) [4, 20]: 85.7%
MIC50 [4, 21]: 2 µg/mL (≈ 4.71 µM)
MIC90 [4, 21]: 4 µg/mL (≈ 9.41 µM)
MIC50 ([4]; Cutibacterium acnes): 0.06 µg/mL (≈ 0.141 µM)
MIC90 ([4]; Cutibacterium acnes): 0.12 µg/mL (≈ 0.282 µM)
MIC Range ([4]; Fusobacterium spp. (N = 21)): 0.06 to 8 µg/mL
% S (percent of susceptible isolates) ([4]; Fusobacterium spp. (N = 21)): 95.2%
MIC50 [4, 22]: 0.06 µg/mL (≈ 0.141 µM)
MIC90 [4, 23]: 2 µg/mL (≈ 4.71 µM)
% S (percent of susceptible isolates) ([4]; Prevotella spp. (N = 20)): 85.0%
MIC Range [4, 24]: ≦0.03-2 μg/mL
% S (percent of susceptible isolates) [4, 24]: 100.0%

Cc1ncc([N+](=O)[O-])n1CCO [Metronidazole]
MIC50 [4]: 4 µg/mL (≈ 23.4 µM)
MIC90 [4]: 4 µg/mL (≈ 23.4 µM)
MIC Range ([4]; Bacteroides fragilis (N = 20)): 2-2 μg/mL
% S (percent of susceptible isolates) ([4]; Bacteroides fragilis (N = 20)): 100.0%
MIC50 [4, 18]: 2 µg/mL (≈ 11.7 µM)
MIC90 [4, 19]: 2 µg/mL (≈ 11.7 µM)
MIC Range [4, 20]: 1 to 4 µg/mL
% S (percent of susceptible isolates) [4, 20]: 100.0%
MIC50 [4, 21]: 2 µg/mL (≈ 11.7 µM)
MIC90 [4, 21]: 4 µg/mL (≈ 23.4 µM)
MIC50 ([4]; Cutibacterium acnes): > 16 µg/mL
MIC90 ([4]; Cutibacterium acnes): > 16 µg/mL
MIC Range ([4]; Fusobacterium spp. (N = 21)): ≦0.12-2 μg/mL
% S (percent of susceptible isolates) ([4]; Fusobacterium spp. (N = 21)): 100.0%
MIC50 [4, 22]: 0.25 µg/mL (≈ 1.46 µM)
MIC90 [4, 23]: 1 µg/mL (≈ 5.84 µM)
MIC Range ([4]; Prevotella spp. (N = 20)): 0.25 to 8 µg/mL
% S (percent of susceptible isolates) ([4]; Prevotella spp. (N = 20)): 100.0%
% S (percent of susceptible isolates) [4, 24]: 0.0%

Cc1onc(-c2ccccc2)c1C(=O)N[C@@H]1C(=O)N2[C@@H]1SC(C)(C)[C@@H]2C(=O)O [Oxacillin]
% S [5, 25]: 50.0%
% S [5, 26]: 78.6%
% S ([5]; Staphylococcus aureus (MRSA, N = 11)): 0.0%
% S [5, 27]: 100.0%
MIC Range [5, 27]: 0.12 to 0.5 µg/mL
% S [5, 28]: 63.3%
MIC50 [5, 29]: > 8 µg/mL
MIC90 [5, 29]: > 8 µg/mL
MIC50 [5, 30]: 0.25 µg/mL (≈ 0.623 µM)
MIC90 [5, 30]: 0.5 µg/mL (≈ 1.25 µM)
MIC50 [5, 25]: 0.5 µg/mL (≈ 1.25 µM)
MIC90 [5, 25]: > 8 µg/mL
MIC50 [5, 26]: 0.25 µg/mL (≈ 0.623 µM)
MIC90 [5, 26]: > 8 µg/mL
MIC50 [5, 28]: 0.25 µg/mL (≈ 0.623 µM)
MIC90 [5, 28]: > 8 µg/mL
% S [6, 31]: 50.0%
MIC Range [6, 31]: 0.12 to 4 µg/mL
% S [6, 32]: 55.6%
MIC Range [6, 32]: ≦0.06-2 μg/mL
% S [6, 33]: 0.0%
MIC Range [6, 33]: 1 to 4 µg/mL
% S [6, 34]: 100.0%
MIC Range [6, 34]: ≦0.06-0.12 μg/mL
% S [6, 35]: 40.0%
MIC90 [6, 35]: 2 µg/mL (≈ 4.98 µM)
MIC Range [6, 35]: ≦0.06-4 μg/mL
MIC50 ([6]; MRSE, Staphylococcus epidermidis (MRSE, N = 9)): 1 µg/mL (≈ 2.49 µM)
MIC50 [6, 31]: 1 µg/mL (≈ 2.49 µM)
MIC50 [6, 32]: 0.12 µg/mL (≈ 0.299 µM)
MIC50 [6, 34]: ≤ 0.06 µg/mL
MIC50 [6, 35]: 1 µg/mL (≈ 2.49 µM)
% S [7]: 60.0%
MIC50 [7]: 0.5 µg/mL (≈ 1.25 µM)
MIC90 [7]: > 8 µg/mL
% S [8]: 9.9%
MIC50 [8]: 0.5 µg/mL (≈ 1.25 µM)
MIC90 [8]: 1 µg/mL (≈ 2.49 µM)
% S [9]: 31.7%
MIC50 [9]: > 8 µg/mL
MIC90 [9]: > 8 µg/mL
% S [10]: 46.0%
MIC50 [10]: 0.5 µg/mL (≈ 1.25 µM)
MIC90 [10]: > 8 µg/mL
% S [11]: 16.0%
MIC50 [11]: > 8 µg/mL
MIC90 [11]: > 8 µg/mL
MIC50 [12]: 4 µg/mL (≈ 9.96 µM)
MIC90 [12]: 8 µg/mL (≈ 19.9 µM)

Penicillin
% S [13]: 100.0%
MIC50 [13]: 0.03 µg/mL
MIC90 [13]: 0.06 µg/mL
MIC Range [13]: ≦0.015-0.06 μg/mL
% S [14, 36]: 0.0%
MIC Range [14, 36]: 4-4 μg/mL
% S ([14]; Streptococcus pneumoniae (PRSP, N = 2)): 0.0%
% S [14, 37]: 100.0%
MIC50 [14, 37]: ≦0.015 μg/mL
MIC90 [14, 37]: 0.25 µg/mL
MIC Range [14, 37]: ≦0.015-0.5 μg/mL
% S [14, 38]: 88.6%
MIC50 [14, 38]: ≦0.015 μg/mL
MIC90 [14, 38]: 4 µg/mL
% S [15]: 100.0%
MIC50 [15]: ≦0.015 μg/mL
MIC90 [15]: ≦0.015 μg/mL
MIC Range [15]: ≦0.015-0.06 μg/mL
% S [16]: 100.0%
MIC50 [16]: ≦0.015 μg/mL
MIC90 [16]: 0.06 µg/mL
MIC Range [16]: ≦0.015-0.06 μg/mL
% S [17]: 76.3%
MIC50 [17]: 0.06 µg/mL
MIC90 [17]: 1 µg/mL
